Where a name gives a salt, the structure may show the parent alone.
Key:
[1] = test system: NCI-H1299; test: Cytotoxicity against human NCI-H1299 cells; assay type: functional, cell-based
[2] = test system: A-375; test: Cytotoxicity against human A375 cells; assay type: functional, cell-based
[3] = test system: IMR-90; test: Cytotoxicity against human IMR90 cells; assay type: functional, cell-based
[4] = test system: A549; test: Cytotoxicity against human A549 cells assessed as reduction in cell viability incubated for 48 hrs by MTT assay; assay type: functional, cell-based; details: A549, 48 h
[5] = test system: PC-3; test: Cytotoxicity against human PC3 cells assessed as reduction in cell viability incubated for 48 hrs by MTT assay; assay type: functional, cell-based; details: PC-3, 48 h
[6] = test system: B16; test: Cytotoxicity against mouse B16 cells assessed as reduction in cell viability incubated for 48 hrs by MTT assay; assay type: functional, cell-based; details: B16, 48 h
[7] = test system: HT-29; test: Cytotoxicity against human HT-29 cells assessed as reduction in cell viability incubated for 48 hrs by MTT assay; assay type: functional, cell-based; details: HT-29, 48 h
[8] = test system: MCF7; test: Induction of apoptosis in human MCF7 cells by Annexin V-FITC dual staining based flow cytometry (reference value: 0.03%); assay type: functional
[9] = test system: MCF7; test: Cytotoxicity against human MCF7 cells by MTT assay; assay type: functional, cell-based
[10] = test system: CCRF S-180; test: Antitumor activity against mouse S180 cells implanted in ICR mouse assessed as inhibition of tumor growth at 0.1 umol/kg, ip for 7 consecutive days starting 24 hrs after tumor cell inoculation relative to untreated control; assay type: functional; details: CCRF S-180, ip, read-out: TGI
[11] = test system: HepG2; test: Cytotoxicity against human HepG2 cells by MTT assay; assay type: functional, cell-based
[12] = test system: HeLa; test: Cytotoxicity against human HeLa cells by MTT assay; assay type: functional, cell-based
[13] = test system: HL-60; test: Cytotoxicity against human HL60(TB) cells incubated for 48 hrs by SRB assay; assay type: functional; details: HL-60, 48 h, read-out: LC50 (the source's name)

## c1ccc2c(c1)[nH]c1c(CNCCOCCNCc3nccc4c3[nH]c3ccccc34)nccc12
[1]
  IC50: 1.6 µM
[2]
  IC50: 3 µM
[3]
  IC50: 1.6 to 201 µM

## COc1cc(C(=O)/C=C/c2cc3c([nH]c4ccccc43)c(-c3cc(OC)c(OC)c(OC)c3)n2)cc(OC)c1OC
[4]
  IC50: 5.3 µM
[5]
  IC50: 19.6 µM
[6]
  IC50: 6.37 µM
[7]
  IC50: 23.1 µM

## O=C(/C=C/c1cc2c([nH]c3ccccc32)c(-c2ccc(C(F)(F)F)cc2)n1)c1ccco1
[8]
  Activity: 58.29%
[9]
  IC50: 1.56 to 5.29 µM

## COc1cc(-c2nc(C(=O)N[C@@H](Cc3c[nH]c4ccccc34)C(=O)N[C@@H](Cc3c[nH]c4ccccc34)C(=O)N[C@@H](CO)C(=O)OCc3ccccc3)cc3c2[nH]c2ccccc23)ccc1O
[10]
  inhibition in vivo at 0.1 µmol/kg: 62.9%

## CC(=O)N1N=C(c2ccco2)CC1c1cc2c([nH]c3ccccc32)c(-c2ccc(C(F)(F)F)cc2)n1 (configuration not stated)
[8]
  Activity: 62.64%
[9]
  IC50: 1.56 to 5.29 µM

## COC(=O)c1cc2c([nH]c3ccccc32)c(-c2ccc(OCc3cn(-c4cccc(Cl)c4Cl)nn3)cc2)n1
[11]
  IC50: 32 µM
[12]
  IC50: 46 µM

## COc1ccc2[nH]cc(-c3nccc4c3[nH]c3ccc(OC)cc34)c2c1
[13]
  CC50: 4.2 µM

## CC[C@H](C)[C@H](NC(=O)[C@H](Cc1c[nH]c2ccccc12)NC(=O)[C@H](Cc1c[nH]c2ccccc12)NC(=O)c1cc2c([nH]c3ccccc32)c(-c2ccc(O)c(OC)c2)n1)C(=O)OCc1ccccc1
[10]
  inhibition in vivo at 0.1 µmol/kg: 63.4%

## COc1cccc2c1C(=O)c1c(O)c3c(c(O)c1C2=O)C[C@@](O)(C(=O)CO)C[C@@H]3O[C@H]1C[C@H](N)[C@H](O)[C@H](C)O1 [DOXORUBICIN HYDROCHLORIDE]
[10]
  inhibition in vivo at 0.1 µmol/kg: 61.1%

Source: ChEMBL document CHEMBL4270494, “Recent insights into synthetic β-carbolines with anti-cancer activities” (Eur J Med Chem, 2017)
